Test results reported in patent US20220392580A1, “COMPUTATIONAL MODEL TRAINED TO PREDICT INTERACTING PAIRS BASED ON WEAKLY-CORRELATED FEATURES” (Cornell University, priority 2016, published 2022).
Structures can show the parent of a compound that is named as a salt.

How the values were obtained:
breast cancer patients = conditions: recent clinical trials; cited from earlier work
[1] = tested on: D1-like (DRD1/5) subfamily of dopamine receptors; conditions: arrestin recruitment GPCR profiling
Method: (§1) To test the target prediction, in vitro profiling of GPCR activity using a hetereologous reporter assay for arrestin recruitment, a hallmark of GPCR activation was performed.

[2] = tested on: D2-like (DRD2/3/4) subfamily of dopamine receptors; conditions: arrestin recruitment GPCR profiling
Method: as §1

DRD4 = DRD4 (Homo sapiens, UniProt P21917); conditions: arrestin recruitment GPCR profiling; potency relative to DRD2 and DRD3
Method: as §1

[3] = tested on: short and long isoforms of DRD2; conditions: arrestin recruitment GPCR profiling
Method: as §1

other GPCRs = assay: in vitro profiling of GPCR activity, heterologous reporter assay for arrestin recruitment; format: cell-based; conditions: under the evaluated conditions
Method: as §1

[4] = tested on: nuclear hormone receptors; assay: interaction profiling
[5] = tested on: other drug targets of FDA-approved cancer therapies; assay: interaction profiling
DRD2L [6] = biological target: T1, DRD2L (Homo sapiens, UniProt P14416); conditions: another measure of DRD2L activation
DRD2L [7] = biological target: T1, DRD2L; assay: antagonism of arrestin recruitment to DRD2L, Gaddam/Schild EC50 shift analysis; format: cell-based; design: expressed in transfected cells; conditions: dopamine completely reverses dose-dependent antagonism of up to 100 uM ONC201
Method: as §1

T1 sequence (P14416 whole entry): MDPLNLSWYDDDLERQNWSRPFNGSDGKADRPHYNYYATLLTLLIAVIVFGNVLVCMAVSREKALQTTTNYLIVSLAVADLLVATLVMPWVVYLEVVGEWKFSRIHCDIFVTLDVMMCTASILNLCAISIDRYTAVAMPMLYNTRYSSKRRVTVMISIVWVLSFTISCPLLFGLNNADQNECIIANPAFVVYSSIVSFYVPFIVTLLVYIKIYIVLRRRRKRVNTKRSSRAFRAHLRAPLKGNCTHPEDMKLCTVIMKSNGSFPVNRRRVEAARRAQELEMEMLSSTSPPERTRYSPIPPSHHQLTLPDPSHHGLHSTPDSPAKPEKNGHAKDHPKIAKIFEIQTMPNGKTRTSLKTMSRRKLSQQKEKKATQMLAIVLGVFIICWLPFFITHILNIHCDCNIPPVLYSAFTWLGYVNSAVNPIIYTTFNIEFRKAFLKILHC
DRD4, sequence (P21917 whole entry): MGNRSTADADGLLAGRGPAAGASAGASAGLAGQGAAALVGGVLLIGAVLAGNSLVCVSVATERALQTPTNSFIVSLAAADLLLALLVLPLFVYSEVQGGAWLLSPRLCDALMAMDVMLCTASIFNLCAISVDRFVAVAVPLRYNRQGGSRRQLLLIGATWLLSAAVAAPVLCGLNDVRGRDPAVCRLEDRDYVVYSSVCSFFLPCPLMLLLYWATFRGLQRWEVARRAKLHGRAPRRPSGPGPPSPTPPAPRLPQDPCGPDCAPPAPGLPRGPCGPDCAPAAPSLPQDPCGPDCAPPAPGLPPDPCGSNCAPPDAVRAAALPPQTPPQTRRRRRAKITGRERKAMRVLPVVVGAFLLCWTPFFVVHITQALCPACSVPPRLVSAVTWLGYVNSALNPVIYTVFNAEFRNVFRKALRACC

| SMILES | patients showing any detectable response after treatment (breast cancer patients) | antagonism of D1-like dopamine receptors [1] | antagonism of D2-like dopamine receptors [2] | antagonism of DRD4 (DRD4) | antagonism of DRD2 short and long isoforms [3] | antagonism of other GPCRs (other GPCRs) | interactions with nuclear hormone receptors [4] | interactions with other drug targets of FDA-approved cancer therapies [5] | cAMP modulation in response to compound (DRD2L [6]) | interactions with the kinome (the kinome) | mode of antagonism of DRD2L (reversal by dopamine) (DRD2L [7]) |
| --- | --- | --- | --- | --- | --- | --- | --- | --- | --- | --- | --- |
| C=C1C[C@@H]2CC[C@@]34C[C@H]5O[C@H]6[C@@H](O3)[C@H]3O[C@H](CC[C@@H]3O[C@H]6[C@H]5O4)CC(=O)C[C@@H]3[C@@H](OC)[C@@H](C[C@H](O)CN)O[C@H]3C[C@H]3O[C@@H](CC[C@@H]1O2)C[C@@H](C)C3=C [Eribulin, Eribulin mesylate] | < 50% | – | – | – | – | – | – | – | – | – | – |
| Cc1ccccc1CN1C(=O)C2=C(CCN(Cc3ccccc3)C2)N2CCN=C12 [ONC201] | – | but not D1-like (DRD1/5) | selectively antagonizes | weaker potency | antagonized | no observed antagonism | no significant interactions | no significant interactions | Confirmatory results | no significant interactions | direct, competitive antagonism |
